# Earlier results as cited in patent publication US20240034722A1, “PRETARGETING IMAGING AGENTS” (Eli Lilly and Company, priority 2020, published 2024).
# Experiments:
# [1] = wild type mice, dynamic PET, by 10 min post-injection; cited from earlier work
# ASO-TCO conjugate = conditions: rats given ASO-TCO intrathecally, tracer i.v. 24 and 168 hours later, static PET-CT 75-90 minutes after tracer; cited from earlier work
smiles,measurement,setting,value
"O=C(Cc1ccc(-c2nncnn2)cc1)NCC[18F] [[^18F]537-Tz, 2-(4-(1,2,4,5-tetrazin-3-yl)phenyl)-N-(2-fluoroethyl)acetamide]",Brain uptake,[1],1.7±0.9 % ID
same,Radiotracer uptake in brain and spine relative to the control group,ASO-TCO conjugate,Higher radiotracer uptake
